From PMC9696794, “Synthesis and Antimicrobial Activity of Short Analogues of the Marine Antimicrobial Peptide Turgencin A: Effects of SAR Optimizations, Cys-Cys Cyclization and Lipopeptide Modifications” (International Journal of Molecular Sciences, 2022)
Where a SMILES comes first, the peptide text is derived from it. Bridges are numbered along the chain shown (N, C = ends). The star is where a group is joined. Lauroyl = CCCCCCCCCCCC(=O)*; Octanoyl = CCCCCCCC(=O)*

Tests used:
[1] = tested on: human red blood cells (RBC); assay: Haemolytic activity assay; assay type: cell-based; conditions: for Selectivity index (SI) G- / Selectivity index (SI) G+ / Selectivity index (SI) Fungi: Table S3, highest tested concentration used where EC50 above it; for Selectivity index (SI) G-: EC50/GM of Gram-negative strains; for Selectivity index (SI) G+: EC50/GM of Gram-positive strains; for Selectivity index (SI) Fungi: EC50/GM of fungi; for SI (selectivity index = EC50/GM): haemolytic EC50 over GM of MIC against all bacterial strains, Table 1; for RBC Tox. (EC50), haemolytic activity: human RBC, 1 h, 37 °C, concentration giving 50% haemolysis
Procedure, shortened: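 Washed human erythrocytes (1% hematocrit final) incubated 1 h at 37 °C with agitation with lipopeptides at 500–3.9 μM in PBS (≤1% DMSO), duplicates. Haemoglobin release read at 545 nm relative to 0.1% Triton X-100; EC50 is 50% haemolysis, averaged from three experiments.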

[2] = tested on: Gram-negative bacterial strains (E. coli and P. aeruginosa); assay: Antibacterial MIC assay, Gram-negative strains together (range or geometric mean); assay type: cell-based; conditions: Table S3; MIC >256 set to 256
Procedure, shortened: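 Cultures grown in Mueller–Hinton broth were adjusted by OD600 to 2.5–3 × 10^4 CFU/mL and mixed with two-fold peptide dilutions from 256 to 1 µg/mL. Plates were incubated at 35 °C with OD595 monitored every hour for 24 h.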

[3] = tested on: fungi (A. pullulans, C. albicans, Rhodotorula sp.); assay: Antifungal MIC assay, all fungi together (range or geometric mean); assay type: cell-based; conditions: Table S3; MIC >128 set to 128
Procedure, shortened: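 Overnight cultures in potato dextrose broth with 2% glucose at 25–30 °C were diluted to approx. 4 × 10^5 spores/mL and mixed 1:1 with two-fold peptide dilutions plated at 256 to 1 µg/mL. After 48 h at room temperature, OD600 was read. MIC was the lowest concentration giving OD below 10% of the growth control, in triplicate.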

[4] = tested on: E. coli K12; assay: Bacterial biosensor membrane integrity assay (luciferase, D-luciferin influx); assay type: cell-based, Escherichia coli
From the text: Changes in light emission of sensor bacteria constitutively expressing the bacterial lux operon or a eukaryotic luciferase can be used as a proxy for viability and membrane integrity, respectively. Light production of the viability biosensors represents metabolic activity of the bacteria. For the membrane integrity assay on the other hand, light production depends on the influx of the externally added D-luciferin, which at neural pH will not readily pass the intact plasma membrane. An initial increase in light production therefore corresponds with damage to the plasma membrane and a concomitant influx of D-luciferin, while a subsequent drop in light emission indicates diminishing ATP reserves of the dying sensor bacteria.
A membrane integrity assay was performed using two bacterial biosensors, B. subtilis 168 (ATCC 23857) and E. coli K12 (ATCC MC1061). Both strains carry the pCSS962 plasmid that contains a eukaryotic luciferase gene (lucGR), which originate from the click beetle Pyrophorus plagiophthalamus. The assay was performed as described previously. […] D-luciferin potassium salt (Synchem Inc., Elk Grove Village, IL, USA) was added to the cell suspension at a final concentration of 1 mM. Two-fold dilutions (final assay concentration of 50–1.56 µg/mL) of peptides dissolved in Milli-Q water were prepared and added (10 µL per well) to black round-bottom 96-well microtiter plates (Nunc). Milli-Q water served as a negative control used for the normalization purpose and CHX, having known membranolytic activity, was used as a positive control. The plates were loaded into a Synergy H1 Hybrid Reader and the background luminescence was monitored before aliquots (90 µL) of the cell suspension with D-luciferin were added, one well at the time, by an automatic injector. Light emission was recorded every second for 3 min. Each study was performed at least three times independently, and the figures show a representative dataset.

| SMILES | Selectivity index (SI) G- [1] | Selectivity index (SI) G+ [1] | Selectivity index (SI) Fungi [1] | SI (selectivity index = EC50/GM) [1] | RBC Tox. (EC50), haemolytic activity [1] [µg/mL] | GM of MIC G- [2] [µg/mL] | GM of MIC Fungi [3] [µg/mL] | effect in membrane integrity assay ([4]; E. coli K12, 50 µg/mL) | effect in membrane integrity assay ([4]; E. coli K12, 25 µg/mL) | rise in luminescence in membrane integrity assay ([4]; E. coli K12, 50 µg/mL, delayed compared to chlorhexidine) [fold] | effect in membrane integrity assay ([4]; E. coli K12, concentrations lower than 25 µg/mL) |
| --- | --- | --- | --- | --- | --- | --- | --- | --- | --- | --- | --- |
| CCCCCCCC(=O)N[C@H]1CSSC[C@@H](C(=O)N[C@@H](CCCCN)C(=O)N[C@@H](CC(C)C)C(N)=O)NC(=O)[C@H](CCCCN)NC(=O)[C@H](Cc2c[nH]c3ccccc23)NC(=O)CNC(=O)[C@H](Cc2c[nH]c3ccccc23)NC(=O)[C@H](Cc2c[nH]c3ccccc23)NC(=O)[C@H](CCCCN)NC(=O)[C@H](CCCCN)NC(=O)CNC1=O [Peptide C8-cTurg-2, C8- (CGKKWWGWKC)KL-NH2] (Octanoyl-CGKKWWGWKCKL-NH2; disulfide 1-10) | 78 | 155 | 35 | 123 | 439 | 6 | 13 | even further delayed rise in peak luminescence | – | – | – |
| CCCCCCCCCCCC(=O)N[C@H]1CSSC[C@@H](C(=O)N[C@@H](CCCCN)C(=O)N[C@@H](CC(C)C)C(N)=O)NC(=O)[C@H](CCCCN)NC(=O)[C@H](Cc2c[nH]c3ccccc23)NC(=O)CNC(=O)CNC(=O)[C@@H]2CCCN2C(=O)[C@H](CCCCN)NC(=O)[C@H](CCCCN)NC(=O)CNC1=O [Peptide C12-cTurg-1, C12 -(CGKKPGGWKC)KL-NH2] (Lauroyl-CGKKPGGWKCKL-NH2; disulfide 1-10) | 27 | 77 | 11 | 55 | 219 | 8 | 20 | – | further delayed response | 3.5 | no effect |
